Measured values as given in paper PMC10115881, “Disrupting the α-synuclein-ESCRT interaction with a peptide inhibitor mitigates neurodegeneration in preclinical models of Parkinson’s disease” (Nature Communications, 2023).
Where “and” joins values, the source holds several entries; their conditions need not be identical. Identical values can stand only once.

Experiments:
[1] = system: A53T a-syn-CHMP2B interaction; test: Co-immunoprecipitation: disruption of a-syn-CHMP2B interaction; type: cell-based; conditions: HEK293 co-immunoprecipitation
Protocol: HEK293T cells were co-transfected with Flag-tagged target protein, HA-tagged source protein, and GFP-tagged peptide or GFP. Cells were lysed 48 h after transfections with radioimmune precipitation assay buffer (50 mM Tris-HCl pH 7.4, 1% Nonidet P-40, 150 mM NaCl, 1 mM EDTA, 10 mM Na3VO4, 10 mM sodium pyrophosphate, 25 mM NaF, 1× protease inhibitor mixture (Sigma)) for 30 min at 4 °C and co-immunoprecipitated with Flag beads (Clontech). The resulting immunocomplexes were analyzed by immunoblot using the appropriate antibodies. Protein samples were separated using 4–20% Mini-PROTEAN Tris-glycine gels (Bio-Rad) transferred to PVDF membranes and blocked in 5% milk containing PBS-Tween-20 (0.1%) for 1 h. PVDF membranes were then incubated with specified primary antibodies followed by incubation with horseradish peroxidase-conjugated secondary antibodies (anti-mouse HRP-linked, Cell Signaling, catalog #7076, 1:5000; anti-rabbit HRP-linked, Cell Signaling, catalog #7074, 1:5000) and detected using enhanced chemiluminescence (GE Healthcare). HA antibodies were obtained from Santa Cruz (catalog #7392, 1:2000), GFP antibodies were purchased from Abcam (catalog #ab290, 1:2000), and Flag antibodies were purchased from Sigma (catalog #A8592, 1:1000).

[2] = system: V1S/SV2 a-syn rats; test: AAV-V1S/SV2 a-syn oligomer rat model; type: in vivo
Protocol: Adult female Sprague-Dawley rats (250–280 g; Envigo) were pair-housed in cages with wood bedding and had access to food and water ad libitum. The animal colony was maintained in a regular 12 h light/dark cycle. All procedures were approved by the University Health Network Animal Care Committee in accordance with guidelines and regulations set by the Canadian Council on Animal Care (AUP #3818).
Animals were secured in a stereotactic frame under isoflurane/oxygen anesthesia and ketoprofen (5 mg/kg) analgesia. The surgical site was shaved and sterilized with iodine/betadine prior to making a 2 cm incision along the midline. The scalp was exposed and a unilateral injection targeting the SN was performed at coordinates AP −5.2 mm, ML −2 mm and DV −7.5 mm with respect to the bregma as a point of reference. For each animal, a total volume of 2 μl of virus was injected at a rate of 0.5 μl/min using a microinjection pump and 10 μl Hamilton syringe with a 26-gauge needle. […] At the end of virus injection, the needle remained in place for 5 min before gradual removal.
Sections were then incubated in blocking solution (1% or 2% BSA, 10% normal goat serum in PBS-T) for 1 h. After blocking, sections were incubated with primary antibodies in antibody solution (2% normal goat serum in PBS-T) overnight at RT. Sections were then washed in PBS or PBS-T and incubated with secondary antibodies diluted in antibody solution for 1 h in the dark at room temperature. Sections were then mounted onto glass slides and allowed to dry and then Dako fluorescence mounting medium (Agilent) was applied, followed by coverslips.
Confocal images of immunofluorescent staining were acquired with a Zeiss LSM880 confocal microscope equipped with 405, 488, 555, and 639 nm laser lines. All images were taken within the linear range at constant gain and pinhole settings at optimal resolution settings determined by the software. For primary cortical neurons and iPSC-derived dopaminergic neurons, the software was programmed to acquire an image every 1 μm for a total of 11 μm, capturing all of the neurons visible in the z-plane in each field of view using a ×63 objective. At least 30 images were acquired for each treatment group from three independent experiments. For animal experiments, the whole midbrain or striatum regions were imaged using a ×5 or ×10 objective. Ten serial coronal midbrain sections were imaged per animal, separated by 240 μm intervals. […]
Confocal images of immunofluorescent staining of midbrain sections were processed using HALO software (Indica Labs), which is a well validated tool for automatic quantification of neurons in brain tissue sections[70]–[72]. […] Fluorescent intensity and area were then assessed in this ROI.

DEEIERQLKALG [PDpep1.3]
Effect on a-syn-CHMP2B interaction [1]: disrupted this a-syn-CHMP2B interaction
Effect on a-syn oligomer levels, YFP positive area ([2]; 6 weeks post-injection, SN): significant reduction in a-syn oligomer levels
TH fluorescence in striatum ([2]; V1S/SV2, 6 weeks, individual rats): 0.2276 and 0.1447 and 0.1385 and 0.1997 and 0.2935 and 0.176 and 0.1626 and 0.2047 and 0.2584 and 0.2974
YFP mean fluorescence intensity in TH+ and RFP+ SN cells ([2]; V1S/SV2, 6 weeks, n = 8–9 rats/group): 0.063 ± 0.0167 RFU
Effect on pS129 a-syn in striatum ([2]; V1S/SV2 rats): reduced pS129 a-syn accumulation in the striatum
